Assays:
[1] = system: spontaneously hypertensive rats (SHR); experiment: Hypotensive effects in spontaneously hypertensive rats (SHR) under anesthesia; format: in vivo, rat (SHR); conditions: anesthetized SHR
Procedure: Hypotensive effects in spontaneously hypertensive rats (SHR) under anesthesia
Male SHR of 20 weeks of age or older were anesthetized with sodium pentobarbital (40 mg/kg, i.p.). The carotid artery and jugular vein were cannulated. Blood pressure was recorded from the carotid artery on a polygraph via a pressure transducer. Test compounds were dissolved in a solution containing 0.9% NaCl and 1% Tween 80 and administered either intravenously into the jugular vein or intraduodenally through a cannula inserted into the duodenum.
As a representative of this invention, compound A (8-hydroxy-2-nitrato-methyl-7-nitro-1,4-benzodioxane) was chosen.

Acute toxicity in mice = conditions: mouse, in vivo
Procedure: Acute toxicity in mice was investigated with respect to 8-hydroxy-2-nitratomethyl-7-nitro-1,4-benzodioxane. […] A similar experiment was also conducted with an intravenous administration of NG.

[2] = system: arterial and venous systems; experiment: Effects on the arterial and venous systems in anesthetized open-chest dogs; format: in vivo, mongrel dogs; conditions: for Max. change in mean blood pressure at diastole, Aortic / Max. change in mean blood pressure at diastole, Pulmonary: anesthetized open-chest dogs
Procedure: Effects on the arterial and venous systems in anesthetized open-chest dogs
Mongrel dogs of either sex, weighing 12-16 kg were subjected to inhalation anesthesia with enflurane under artificial respiration. The dogs were subjected to thoracotomy through the fourth right intercostal wall and catheters were inserted into the thoracic aorta and right pulmonary artery. The aortic and pulmonary blood pressures were measured by means of cathether tip-type piezoelectric transducers.
Test compounds were cumulatively administered with intervals of 30 minutes either intravenously or intraduodenally through catheters placed in the left femoral vein and duodenum.

coronary blood flow = experiment: Effects on the coronary blood flow in anesthetized open-chest dogs; format: in vivo, mongrel dogs; conditions: for Max. increase in coronary blood flow: anesthetized open-chest dogs
Procedure: Effects on the coronary blood flow in anesthetized open-chest dogs
Mongrel dogs of either sex weighing 9-14 kg were subjected to inhalation anesthesia with enflurane under artificial respiration. […] Test compounds were administered cumulatively at intervals of 10 minutes through a catheter inserted into the left femoral vein.

[3] = intravenous administration, dogs
[4] = intravenous, dogs, vs nicorandil

| SMILES | LD50 (Acute toxicity in mice; intravenous administration) | Max. change in mean blood pressure at diastole, Aortic ([2]; i.d, 30 μg/Kg) | Max. change in mean blood pressure at diastole, Pulmonary ([2]; i.d, 30 μg/Kg) | Max. change in mean blood pressure at diastole, Aortic ([2]; i.d, 100 μg/Kg) | Max. change in mean blood pressure at diastole, Pulmonary ([2]; i.d, 100 μg/Kg) | Max. change in mean blood pressure at diastole, Aortic ([2]; i.d, 300 μg/Kg) | Max. change in mean blood pressure at diastole, Pulmonary ([2]; i.d, 300 μg/Kg) | Max. change in mean blood pressure at diastole, Aortic ([2]; i.v, 3 μg/Kg) | Max. change in mean blood pressure at diastole, Pulmonary ([2]; i.v, 3 μg/Kg) | Max. change in mean blood pressure at diastole, Aortic ([2]; i.v, 10 μg/Kg) | Max. change in mean blood pressure at diastole, Pulmonary ([2]; i.v, 10 μg/Kg) | Max. increase in coronary blood flow (coronary blood flow; 3 μg/Kg, intravenous) | Max. increase in coronary blood flow (coronary blood flow; 10 μg/Kg, intravenous) | Max. change in mean blood pressure at diastole, Aortic ([2]; i.v, 30 μg/Kg) | Max. change in mean blood pressure at diastole, Pulmonary ([2]; i.v, 30 μg/Kg) | further results |
| --- | --- | --- | --- | --- | --- | --- | --- | --- | --- | --- | --- | --- | --- | --- | --- | --- |
| O=[N+]([O-])OCC1COc2ccc([N+](=O)[O-])c(O)c2O1 (stereo not drawn) [Compound A, 8-hydroxy-2-nitratomethyl-7-nitro-1,4-benzodioxane] | 200 to 250 mg/kg | -2 mm/Hg | -1.5 mm/Hg | -15 mm/Hg | -2.5 mm/Hg | -22 mm/Hg | -3.5 mm/Hg | -39.2 mm/Hg | -3.2 mm/Hg | -44.2 mm/Hg | -5.3 mm/Hg | 84.7% | 127.6% |  |  | minimal effective dose ([1]; Rattus norvegicus, intravenous administration, read-out: dose as small as which caused a marked hypotension): 0.0003 mg/kg; hypotension ([1]; intraduodenal administration): dose-dependent hypotension; hypotensive potency relative to ISDN ([1]; intraduodenal, vs ISDN): ~30 times; hypotensive potency relative to NG ([1]; intraduodenal, vs NG): ~10 times; hypotensive potency relative to nicorandil ([1]; intraduodenal, vs nicorandil): about 5 times; potency to cause 30% decrease in mean aortic pressure relative to ISDN ([1]; intravenous, vs ISDN): 250 times; potency to cause 30% decrease in mean aortic pressure relative to NG ([1]; intravenous, vs NG): 5 times; potency to cause 30% decrease in mean aortic pressure relative to nicorandil ([1]; intravenous, vs nicorandil): 300 times; LD50 (Acute toxicity in mice; oral administration): 500 to 1000 mg/kg; Max. change in mean blood pressure at diastole, Aortic ([2]; i.v, 1 μg/Kg): -23 mm/Hg; Max. change in mean blood pressure at diastole, Pulmonary ([2]; i.v, 1 μg/Kg): -2.5 mm/Hg; reductions in aortic and pulmonary blood pressures ([2]; intraduodenal administration, dogs): dose-dependent reductions in aortic and pulmonary blood pressures; potency (reductions in aortic and pulmonary blood pressures) relative to NG ([2]; intraduodenal, dogs, vs NG): about 3 times; reduction of aortic and pulmonary blood pressure [2, 3]: reduced aortic and pulmonary blood pressure dose-dependently; vasodilating effect on the arterial system (reduction in aortic blood pressure) relative to nicorandil [2, 4]: about 3 times; vasodilating effect on the venous system (reduction in pulmonary blood pressure) relative to nicorandil [2, 4]: about 3 times; Max. increase in coronary blood flow (coronary blood flow; 1 μg/Kg, intravenous): 52.0%; dose range causing a marked and dose-dependent increase in coronary blood flow (coronary blood flow; [3]): 0.001 to 0.01 mg/kg; effect on the coronary flow, potency relative to NG (coronary blood flow; intravenous, dogs, vs NG): about 3 times |
| O=[N+]([O-])OCC(CO[N+](=O)[O-])O[N+](=O)[O-] [NG, nitroglycerin] | 10 to 15 mg/kg | -1.7 mm/Hg | -0.7 mm/Hg | -3.3 mm/Hg | -1 mm/Hg | -10 mm/Hg | -1.7 mm/Hg | -21.7 mm/Hg | -0.8 mm/Hg | -33.3 mm/Hg | -3.0 mm/Hg | 31.3% | 79.7% | -40.0 mm/Hg | -3.7 mm/Hg | Max. increase in coronary blood flow (coronary blood flow; 30 μg/Kg, intravenous): 165.0% |
| O=C(NCCO[N+](=O)[O-])c1cccnc1 [Nicorandil, N-[2-(nitroxy)ethyl]-3-pyridinecarboxamide] |  |  |  |  |  |  |  |  |  |  |  |  |  | -10.3 mm/Hg | -1 mm/Hg | Max. change in mean blood pressure at diastole, Aortic ([2]; i.v, 100 μg/Kg): -18.6 mm/Hg; Max. change in mean blood pressure at diastole, Pulmonary ([2]; i.v, 100 μg/Kg): -1.5 mm/Hg; Max. change in mean blood pressure at diastole, Aortic ([2]; i.v, 300 μg/Kg): -50.9 mm/Hg; Max. change in mean blood pressure at diastole, Pulmonary ([2]; i.v, 300 μg/Kg): -2.1 mm/Hg |

Reference: patent US4794118A, “1,4-benzodioxane derivatives” (Eisai Co., Ltd., priority 1985, dated 1988)
